We go through 6 compounds from patent publication US3996344A, “Phenethylamine antigenic conjugates, their preparation, antibodies and use” (Biological Developments, Inc., priority 1974, dated 1976).

This experiment has as its system antiserum (antibody raised in rabbits to the antigen of Example I, N-TFA-p-aminoamphetamine coupled to BSA). Nature of the experiment: Radioimmune assay for amphetamine: competitive inhibition of 3H-d-amphetamine binding to, and cross-reactivity of, antiserum raised to the antigen of Example I. Conditions: for Percent Cross-Reactivity: method of Abraham, relative quantity that produces 50% inhibition x 100, d-amphetamine = 100; for Percent Inhibition of Binding 3H-d-amphetamine: 3H-d-amphetamine 137 picograms, 2 hours, 4° C.

With `C[C@@H](N)Cc1ccccc1` [1-amphetamine], the “Percent Cross-Reactivity” value is on record as 1.45%. Turning to `C[C@H](N)Cc1ccccc1` [d-amphetamine], the “Percent Cross-Reactivity” value turned out to be 100%. In addition, for the setting “250 picograms of unlabeled amphetamine”, the “Percent Inhibition of Binding 3H-d-amphetamine” value (shortened to “Percent Inhibition”) turned out to be 12%. For the setting “500 picograms of unlabeled amphetamine”, the “Percent Inhibition” value worked out at 22%. Also, the “Percent Inhibition” value (1,000 picograms of unlabeled amphetamine) amounted to 33.5%. The “Percent Inhibition” value (10,000 picograms of unlabeled amphetamine) stood at 83.0%.

`CNCC(O)c1ccc(O)c(OC)c1` (stereo not shown) [metanephrine]: the “Percent Cross-Reactivity” value is on record as under 0.0125%.

With `CN[C@@H](C)Cc1ccccc1` [methadrine], the “Percent Cross-Reactivity” value was determined as 0.45%.

With `COc1cc(C(O)CN)ccc1O` (stereo not shown) [normetanephrine], the “Percent Cross-Reactivity” value is given as under 0.0125%. As to `NCCc1ccc(O)cc1` [tyramine], the “Percent Cross-Reactivity” value was 3.4%.
